Like-named read-outs stand apart in the source and are kept apart here.
Legend:
[1] = target: T1, SRC (Homo sapiens, UniProt P12931); test: In vitro kinase assay, SRC (Caliper EZ Reader conversion); type: biochemical
T1 construct: purchased Carna Biosciences
Description: (§1) The effect of the compounds on the activity of SRC and PAK1 kinase were assessed. SRC and PAK1 kinase enzymes were obtained from Carna Biosciences.
Test compounds were dissolved in 100% DMSO to prepare a 20 mM stock. Compounds were stored in −20° C. and protected from light. […] Saracatinib was used as a positive control for the SRC assay, and FRAX597 was used as a positive control for the PAK1 assay. For the positive controls, a 3-fold serial dilution was made to achieve a total of 10 concentrations. 10 μL 1× Kinase buffer was used as the negative control.
First, 250 nL of the compounds at each dilution were transferred into wells of a 384-well plate. […] Then, 10 μL of enzyme mix was added to the 384-well plate, and the enzymes and compounds were pre-incubated at room temperature for 10 minutes. […] Then, 15 μL of substrate mix was added to a 384-well plate and reacted at room temperature for 30 min and 60 min. The reaction was stopped by adding 30 μL of the stop buffer, and the conversion rate was read using a Caliper EZ Reader.
(§2) Percent inhibition is calculated according to the following equation: […]
(§3) wherein “Conversion %_sample” is the conversion percentage value of the sample; “Conversion %_min” is the average conversion percentage value of the negative control; and “Conversion %_max” is the average conversion percentage value of the positive control.
(§4) The dose-response curve was fitted using GraphPad Prism software (version 5, […]), and the IC50 values for each compounds were calculated by log(inhibitor) vs. response using a variable slope program with the following formula:
(§5) Y=Bottom+(Top-Bottom)/(1+10^((Log IC50−X)*HillSlope))

[2] = target: PAK1 (Homo sapiens, UniProt Q13153); test: In vitro kinase assay, PAK1 (Caliper EZ Reader conversion); type: biochemical; parameters: purchased Carna Biosciences
Sequence of PAK1 (Q13153 whole entry): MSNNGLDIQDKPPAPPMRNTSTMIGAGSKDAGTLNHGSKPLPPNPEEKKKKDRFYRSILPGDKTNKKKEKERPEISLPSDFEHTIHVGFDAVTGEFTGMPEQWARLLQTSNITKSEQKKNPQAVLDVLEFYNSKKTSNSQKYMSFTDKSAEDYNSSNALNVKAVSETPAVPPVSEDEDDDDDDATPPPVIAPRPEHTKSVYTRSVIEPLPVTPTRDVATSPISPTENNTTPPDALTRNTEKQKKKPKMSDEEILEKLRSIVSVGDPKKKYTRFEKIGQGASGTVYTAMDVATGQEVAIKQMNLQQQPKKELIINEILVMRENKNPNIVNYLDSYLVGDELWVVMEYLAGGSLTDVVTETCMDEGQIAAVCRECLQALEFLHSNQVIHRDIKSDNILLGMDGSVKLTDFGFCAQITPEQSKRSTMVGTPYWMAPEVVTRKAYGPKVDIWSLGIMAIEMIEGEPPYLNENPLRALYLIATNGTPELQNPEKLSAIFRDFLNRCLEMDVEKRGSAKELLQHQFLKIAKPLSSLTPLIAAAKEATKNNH
Description: as §1
Test compounds were dissolved in 100% DMSO to prepare a 20 mM stock. Compounds were stored in −20° C. and protected from light. A 100×solution of the compounds were prepared, from which 4-fold serial dilutions was made to achieve a total of 6 concentrations. Saracatinib was used as a positive control for the SRC assay, and FRAX597 was used as a positive control for the PAK1 assay. For the positive controls, a 3-fold serial dilution was made to achieve a total of 10 concentrations. 10 μL 1× Kinase buffer was used as the negative control.
First, 250 nL of the compounds at each dilution were transferred into wells of a 384-well plate. The PAK1 and SRC kinases were diluted to a 2.5×final concentration with 1×Kinase buffer. Then, 10 μL of enzyme mix was added to the 384-well plate, and the enzymes and compounds were pre-incubated at room temperature for 10 minutes. […] Then, 15 μL of substrate mix was added to a 384-well plate and reacted at room temperature for 30 min and 60 min. The reaction was stopped by adding 30 μL of the stop buffer, and the conversion rate was read using a Caliper EZ Reader.
as §2, §3, §4, §5

T1 sequence (P12931 whole entry): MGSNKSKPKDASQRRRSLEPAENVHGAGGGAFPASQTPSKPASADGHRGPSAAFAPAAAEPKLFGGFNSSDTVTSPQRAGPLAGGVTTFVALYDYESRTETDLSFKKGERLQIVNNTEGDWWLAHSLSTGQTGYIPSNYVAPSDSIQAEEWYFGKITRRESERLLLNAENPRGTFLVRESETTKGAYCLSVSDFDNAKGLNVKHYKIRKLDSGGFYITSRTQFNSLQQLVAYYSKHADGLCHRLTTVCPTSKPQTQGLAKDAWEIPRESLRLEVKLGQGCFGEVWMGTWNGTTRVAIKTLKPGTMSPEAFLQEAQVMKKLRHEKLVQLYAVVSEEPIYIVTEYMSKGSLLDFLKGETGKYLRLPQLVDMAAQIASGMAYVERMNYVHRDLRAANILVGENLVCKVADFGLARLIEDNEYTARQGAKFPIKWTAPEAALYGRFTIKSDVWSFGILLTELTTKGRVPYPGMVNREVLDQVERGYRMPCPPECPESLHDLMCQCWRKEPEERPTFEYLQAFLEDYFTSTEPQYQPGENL

Row | IC50 ([1]; read-out: SRC IC50) [µM] | IC50 [2] [µM] | IC50 [1] [µM] | Structure (SMILES)
1 | 0.1 to 10 | > 10 |  | Fc1cc(N2CCNCC2)ccc1Nc1ncc2c(n1)N1CCN=C1C(c1ccccc1)=C2 [Compound 29, N-(2-fluoro-4-(piperazin-1-yl)phenyl)-6-phenyl-8,9-dihydroimidazo[1′,2′:1,6]pyrido[2,3-d]pyrimidin-2-amine]
2 | > 10 | > 10 |  | Clc1ccc(C2=Cc3cnc(NC4CCOCC4)nc3N3CCN=C23)c(Cl)c1 [Compound 5, 6-(2,4-dichlorophenyl)-N-(tetrahydro-2H-pyran-4-yl)-8,9-dihydroimidazo[1′,2′:1,6]pyrido[2,3-d]pyrimidin-2-amine]
3 | > 10 | > 10 |  | Fc1ccccc1Nc1ncc2c(n1)N1CCCN=C1C(c1cccc3[nH]ccc13)=C2 [Compound 57, N-(2-fluorophenyl)-6-(1H-indol-4-yl)-9,10-dihydro-8H-pyrido[1,6-a:2,3-d′]dipyrimidin-2-amine]
4 | < 0.1 | 0.1 to 10 |  | Fc1cc(Nc2ncc3c(n2)N2CCN=C2C(c2ccc(Cl)cc2)=C3)ccc1N1CCNCC1 [Compound 26, 6-(4-chlorophenyl)-N-(3-fluoro-4-(piperazin-1-yl)phenyl)-8,9-dihydroimidazo[1′,2′:1,6]pyrido[2,3-d]pyrimidin-2-amine]
5 | > 10 | > 10 |  | C1=C(c2ccncc2)C2=NCCN2c2nc(Nc3ccncc3)ncc21 [Compound 45, N,6-di(pyridin-4-yl)-8,9-dihydroimidazo[1′,2′:1,6]pyrido[2,3-d]pyrimidin-2-amine]
6 | < 0.1 | > 10 |  | COc1cccc(Nc2ncc3c(n2)N2CCN=C2C(c2ccccc2Cl)=C3)c1 [Compound 17, 6-(2-chlorophenyl)-N-(3-methoxyphenyl)-8,9-dihydroimidazo[1′,2′:1,6]pyrido[2,3-d]pyrimidin-2-amine]
7 | > 10 | 0.1 to 10 |  | CCNc1ncc2c(n1)N1CCN=C1C(c1ccc(-n3ccnc(C)c3=O)cc1Cl)=C2 [Compound 24, 1-(3-chloro-4-(2-(ethylamino)-8,9-dihydroimidazo[1′,2′:1,6]pyrido[2,3-d]pyrimidin-6-yl)phenyl)-3-methylpyrazin-2(1H)-one]
8 |  | > 10 | < 0.1 | Fc1cc(N2CCNCC2)ccc1Nc1ncc2c(n1)N1CCN=C1C(c1ccc(Cl)cc1Cl)=C2 [Compound 7, 6-(2,4-dichlorophenyl)-N-(2-fluoro-4-(piperazin-1-yl)phenyl)-8,9-dihydroimidazo[1′,2′:1,6]pyrido[2,3-d]pyrimidin-2-amine]
9 | < 0.1 | 0.1 to 10 |  | OCc1cccc(Nc2ncc3c(n2)N2CCN=C2C(c2ccccc2Cl)=C3)c1 [Compound 13, (3-((6-(2-chlorophenyl)-8,9-dihydroimidazo[1′,2′:1,6]pyrido[2,3-d]pyrimidin-2-yl)amino)phenyl)methanol]
10 | > 10 | > 10 |  | COc1nc(N2CCNCC2)ccc1Nc1ncc2c(n1)N1CCN=C1C(c1ccccn1)=C2 [Compound 39, N-(2-methoxy-6-(piperazin-1-yl)pyridin-3-yl)-6-(pyridin-2-yl)-8,9-dihydroimidazo[1′,2′:1,6]pyrido[2,3-d]pyrimidin-2-amine]
11 | 0.1 to 10 | > 10 |  | Clc1cccc(Cl)c1C1=Cc2cnc(NCCC3CCNCC3)nc2N2CCN=C12 [Compound 49, 6-(2,6-dichlorophenyl)-N-(2-(piperidin-4-yl)ethyl)-8,9-dihydroimidazo[1′,2′:1,6]pyrido[2,3-d]pyrimidin-2-amine]
12 | < 0.1 | > 10 |  | CSc1cccc(Nc2ncc3c(n2)N2CCN=C2C(c2ccccc2Cl)=C3)c1 [Compound 18, 6-(2-chlorophenyl)-N-(3-(methylthio)phenyl)-8,9-dihydroimidazo[1′,2′:1,6]pyrido[2,3-d]pyrimidin-2-amine]
13 | 0.1 to 10 | > 10 |  | C1=C(c2ccccc2)C2=NCCN2c2nc(Nc3ccncc3)ncc21 [Compound 43, 6-phenyl-N-(pyridin-4-yl)-8,9-dihydroimidazo[1′,2′:1,6]pyrido[2,3-d]pyrimidin-2-amine]
14 | < 0.1 | 0.1 to 10 |  | Fc1cc(Nc2ncc3c(n2)N2CCCN=C2C(c2ccc(Cl)cc2Cl)=C3)ccc1N1CCNCC1 [Compound 69, 6-(2,4-dichlorophenyl)-N-(3-fluoro-4-(piperazin-1-yl)phenyl)-9,10-dihydro-8H-pyrido[1,6-a:2,3-d′]dipyrimidin-2-amine]
15 | < 0.1 | 0.1 to 10 |  | Fc1cc(Nc2ncc3c(n2)N2CCN=C2C(c2ccccc2Cl)=C3)ccc1N1CCNCC1 [Compound 11, 6-(2-chlorophenyl)-N-(3-fluoro-4-(piperazin-1-yl)phenyl)-8,9-dihydroimidazo[1′,2′:1,6]pyrido[2,3-d]pyrimidin-2-amine]
16 | 0.1 to 10 | > 10 |  | Clc1ccccc1C1=Cc2cnc(Nc3cccnc3)nc2N2CCN=C12 [Compound 15, 6-(2-chlorophenyl)-N-(pyridin-3-yl)-8,9-dihydroimidazo[1′,2′:1,6]pyrido[2,3-d]pyrimidin-2-amine]
17 | 0.1 to 10 | 0.1 to 10 |  | COc1nc(N2CCNCC2)ccc1Nc1ncc2c(n1)N1CCN=C1C(c1ccc(Cl)cc1Cl)=C2 [Compound 35, 6-(2,4-dichlorophenyl)-N-(2-methoxy-6-(piperazin-1-yl)pyridin-3-yl)-8,9-dihydroimidazo[1′,2′:1,6]pyrido[2,3-d]pyrimidin-2-amine]
18 | > 10 | > 10 |  | CCNc1ncc2c(n1)N1CCN=C1C(c1ccc(Cl)cc1Cl)=C2 [Compound 4, 6-(2,4-dichlorophenyl)-N-ethyl-8,9-dihydroimidazo[1′,2′:1,6]pyrido[2,3-d]pyrimidin-2-amine]
19 | 0.1 to 10 | > 10 |  | CN1CCN(CCNc2ncc3c(n2)N2CCN=C2C(c2c(Cl)cccc2Cl)=C3)CC1 [Compound 48, 6-(2,6-dichlorophenyl)-N-(2-(4-methylpiperazin-1-yl)ethyl)-8,9-dihydroimidazo[1′,2′:1,6]pyrido[2,3-d]pyrimidin-2-amine]
20 | > 10 | > 10 |  | Clc1cccc(Cl)c1C1=Cc2cnc(N3CCNCC3)nc2N2CCN=C12 [Compound 50, 6-(2,6-dichlorophenyl)-2-(piperazin-1-yl)-8,9-dihydroimidazo[1′,2′:1,6]pyrido[2,3-d]pyrimidine]
21 | 0.1 to 10 | > 10 |  | Fc1cc(N2CCNCC2)ccc1Nc1ncc2c(n1)N1CCN=C1C(c1ccc(Cl)cc1)=C2 [Compound 28, 6-(4-chlorophenyl)-N-(2-fluoro-4-(piperazin-1-yl)phenyl)-8,9-dihydroimidazo[1′,2′:1,6]pyrido[2,3-d]pyrimidin-2-amine]
22 | > 10 | > 10 |  | COc1nc(N2CCNCC2)ccc1Nc1ncc2c(n1)N1CCN=C1C(c1ccc(-n3ccnc(C)c3=O)cc1)=C2 [Compound 42, 1-(4-(2-((2-methoxy-6-(piperazin-1-yl)pyridin-3-yl)amino)-8,9-dihydroimidazo[1′,2′:1,6]pyrido[2,3-d]pyrimidin-6-yl)phenyl)-3-methylpyrazin-2(1H)-one]
23 | < 0.1 | > 10 |  | Clc1cccc(Cl)c1C1=Cc2cnc(Nc3ccncc3)nc2N2CCN=C12 [Compound 52, 6-(2,6-dichlorophenyl)-N-(pyridin-4-yl)-8,9-dihydroimidazo[1′,2′:1,6]pyrido[2,3-d]pyrimidin-2-amine]
24 | < 0.1 | > 10 |  | Cc1ccc(Nc2ncc3c(n2)N2CCN=C2C(c2ccccc2Cl)=C3)cc1F [Compound 20, 6-(2-chlorophenyl)-N-(3-fluoro-4-methylphenyl)-8,9-dihydroimidazo[1′,2′:1,6]pyrido[2,3-d]pyrimidin-2-amine]
25 | 0.1 to 10 | > 10 |  | Fc1ccccc1Nc1ncc2c(n1)N1CCCN=C1C(c1cccc3[nH]ncc13)=C2 [Compound 58, N-(2-fluorophenyl)-6-(1H-indazol-4-yl)-9,10-dihydro-8H-pyrido[1,6-a:2,3-d′]dipyrimidin-2-amine]
26 |  | > 10 |  | Cc1ccccc1C1=Cc2cnc(Nc3ccc(N4CCNCC4)cc3F)nc2N2CCN=C12 [Compound 30, N-(2-fluoro-4-(piperazin-1-yl)phenyl)-6-(o-tolyl)-8,9-dihydroimidazo[1′,2′:1,6]pyrido[2,3-d]pyrimidin-2-amine]

— patent US20230303570A1, “KINASE INHIBITORS AND USES THEREOF” (ABM Therapeutics Corporation, priority 2020, published 2023)
